Laboratory results published in ChEMBL document CHEMBL5108053 (J Med Chem, 2022).

Experiments:
[1] = Lipophilicity, logD of the compound in Octanol/potassium phosphate buffer at pH 7.4 after 1 hr by shake-flask based LC-MS/MS analysis; assay type: physicochemical; conditions: octanol/water, pH 7.4, 1 h
[2] = Stability in mouse hepatocytes assessed as intrinsic clearance at 2 uM measured per 10^6 cells incubated at 15 to 120 mins by LC-MS/MS analysis; assay type: ADME, cell-based, Hepatocyte; conditions: time 15-120 min
[3] = Oral bioavailability in C57BL/6 mouse at 1 mg/kg, iv or 10 mg/kg by HPLC analysis; assay type: ADME, organism-based; conditions: in vivo
[4] = Volume of distribution in C57BL/6 mouse at 1 mg/kg, iv or 10 mg/kg, po by HPLC analysis; assay type: ADME, organism-based; conditions: in vivo
[5] = Stability in human hepatocytes assessed as intrinsic clearance at 2 uM measured per 10^6 cells incubated at 15 to 120 mins by LC-MS/MS analysis; assay type: ADME, cell-based, Hepatocyte; conditions: time 15-120 min

Compound	logD [1]	CLH [2] [µL/min]	bioavailability [3] [%]	Vd [4] [L/kg]	CLH [5] [µL/min]
C[C@H]1O[C@@H](S[C@@H]2O[C@H](CO)[C@H](O)[C@H](n3cc(-c4cccc(F)c4)nn3)[C@H]2O)[C@H](O)[C@@H](n2cc(-c3cccc(F)c3)nn2)[C@H]1O	2.4				
OC[C@H]1O[C@H](Sc2ccc(Cl)c(Cl)c2)[C@H](O)[C@@H](n2cc(-c3cc(F)c(F)c(F)c3)nn2)[C@H]1O	4.6	0.8	75	0.4	0.7
CC(=O)Nc1ccc(S[C@H]2O[C@H](CO)[C@H](O)[C@H](n3cc(-c4cc(F)c(F)c(F)c4)nn3)[C@H]2O)cc1	2.28				
CCCCSC[C@H]1O[C@@H](S[C@@H]2O[C@H](CO)[C@H](O)[C@H](n3cc(-c4cccc(F)c4)nn3)[C@H]2O)[C@H](O)[C@@H](n2cc(-c3cccc(F)c3)nn2)[C@H]1O	3.4				
OC[C@H]1O[C@@H](S[C@@H]2O[C@H](CO)[C@H](O)[C@H](n3cc(-c4cccc(F)c4)nn3)[C@H]2O)[C@H](O)[C@@H](n2cc(-c3cccc(F)c3)nn2)[C@H]1O [OLITIGALTIN]	2.1				

Now from value to molecule:

logD [1]	CLH [2] [µL/min]	bioavailability [3] [%]	Vd [4] [L/kg]	CLH [5] [µL/min]	Compound
3.7	1.1	95	0.9	0.8	N#Cc1ccc(S[C@H]2O[C@H](CO)[C@H](O)[C@H](n3cc(-c4cc(F)c(F)c(F)c4)nn3)[C@H]2O)cc1Cl
3		68	1.1	0.15	OC[C@H]1O[C@H](Sc2cncc(Br)c2)[C@H](O)[C@@H](n2cc(-c3cc(F)c(F)c(F)c3)nn2)[C@H]1O [SELVIGALTIN]
